Test results from patent US20200237786A1, “DIAGNOSIS AND TREATMENT OF ENDOMETRIOSIS BY SCREENING FOR L-FORM BACTERIA” (Soft Cell Biological Research, LLC, priority 2017, published 2020).

Assays:
[1] = system: Bacterial strains identified in Example 5; assay: Antibiotic sensitivity by diffusion disk test of strains cultured from each subject; assay type: cell-based
Protocol: (§1) The disclosure is based, in part, on the recognition that certain L-form bacteria are sensitive to (e.g., not resistant to treatment with) specific antibiotic agents. In some embodiments, resistance to antibiotic agents is tested by a diffusion tab (diffusion disk) test, for example as described in Reller et al. (2009) Clinical Infectious Diseases, 49(11): 1749-1755. However, the skilled artisan recognizes that additional methods of antibiotic sensitivity testing may also be used.
(§2) Bacterial strains identified in Example 5 were tested for antibiotic sensitivity by a diffusion disk test. […] Resistance to Oxacillin was also observed in the M. maritypicum samples.

M. maritypicum = assay: Antibiotic sensitivity by diffusion disk test, M. maritypicum; assay type: cell-based, Microbacterium maritypicum
Protocol: as §1, §2

[2] = strains cultured from subject 1609
[3] = strains cultured from subject 1642
[4] = strains cultured from subject 1644
[5] = strains cultured from subject 3016
[6] = strains cultured from subject 1545
[7] = strains cultured from subject 1538
[8] = strains cultured from subject 1619
[9] = strains cultured from subject 1636
[10] = strains cultured from subject 1842
[11] = strains cultured from subject 1985
[12] = strains cultured from subject 3164
[13] = strains cultured from subject 1905
[14] = strains cultured from subject 3025

CO/N=C(\C(=O)N[C@@H]1C(=O)N2C(C(=O)O)=C(COC(N)=O)CS[C@H]12)c1ccco1 [Cefuroxime]
Resistance? [1, 2]: Cefuroxime | Resistance? [1, 3]: Cefuroxime | Most Effective Oral Antibiotic [1, 4]: Cefuroxime | Resistance? [1, 5]: Cefuroxime

Sulfa-Trimeth
Resistance? [1, 6]: Sulfa- | Resistance? [1, 3]: Sulfa-Trimeth, | Resistance? [1, 5]: Sulfa-Trimeth,

Cc1ncc([N+](=O)[O-])n1CCO [Metronidazole]
resistance observed for M. maritypicum (M. maritypicum; in the majority of samples): resistance | Resistance? [1, 7]: Metronidazole | Resistance? [1, 6]: Metronidazile, | Resistance? [1, 2]: Metronidazole, | Resistance? [1, 8]: Metronidazole, | Resistance? [1, 9]: Metronidazole, | Resistance? [1, 3]: Metronidazole, | Resistance? [1, 4]: Metronidazole, | Resistance? ([1]; strains cultured from subject 1661): Metronidazole, | Resistance? [1, 10]: Metronidazole, | Resistance? [1, 11]: Metronidazole | Resistance? [1, 5]: Metronidazole, | Resistance? [1, 12]: Metronidazole

Amoxiclav
Most Effective Oral Antibiotic [1, 7]: Amoxiclav | Resistance? [1, 3]: Amoxiclav | Most Effective Oral Antibiotic ([1]; strains cultured from subject 1888): Amoxiclav | Most Effective Oral Antibiotic [1, 13]: Amoxiclav, | Most Effective Oral Antibiotic [1, 5]: Amoxiclav | Most Effective Oral Antibiotic [1, 14]: Amoxiclav

C[C@@H](O)[C@H]1C(=O)N2C(C(=O)O)=C(S[C@@H]3CN[C@H](C(=O)N(C)C)C3)[C@H](C)[C@H]12 [Meropenem]
Most Effective IV Antibiotic [1, 7]: Meropenem | Most Effective IV Antibiotic [1, 2]: Meropenem | Most Effective IV Antibiotic [1, 8]: Meropenem | Most Effective IV Antibiotic [1, 9]: Meropenem | Most Effective IV Antibiotic [1, 10]: Meropenem | Most Effective IV Antibiotic [1, 14]: Meropenem | Most Effective IV Antibiotic ([1]; strains cultured from subject 3104): Meropenem | Most Effective IV Antibiotic [1, 12]: Meropenem

Cc1onc(-c2ccccc2)c1C(=O)N[C@@H]1C(=O)N2[C@@H]1SC(C)(C)[C@@H]2C(=O)O [Oxacillin]
resistance observed in the M. maritypicum samples (M. maritypicum; M. maritypicum samples): Resistance | Resistance? [1, 6]: Oxacillin | Resistance? [1, 2]: Oxaillin | Resistance? [1, 8]: Oxacillin | Resistance? [1, 9]: Oxacillin | Resistance? [1, 3]: Oxacillin | Resistance? [1, 4]: Oxacillin | Resistance? [1, 10]: Oxacillin | Resistance? [1, 5]: Oxacilin | Resistance? [1, 14]: Oxacillin

Rifapin
Most Effective Oral Antibiotic [1, 11]: Rifapin

Penicillin
Most Effective Oral Antibiotic [1, 13]: Penicillin | Resistance? [1, 5]: Penicillin
